# Results from patent publication EP2928504B1, “PROTEIN-POLYMER-DRUG CONJUGATES” (Mersana Therapeutics, Inc., priority 2012, dated 2014).
# pIC50: −log10 of the molar value. Read-outs that look alike come from different tables or passages of the source.
# Experiments:
# Test in all cases: Cell viability assay (Cell Titer-Glo)
# Format in all cases: cell-based
# NCI-N87 = test system: NCI-N87
# BT474 = conditions: Homo sapiens, BT-474, 72 h
# MCF7 = test system: MCF7
# HCT15 = test system: HCT15
# SKBR3 = conditions: Homo sapiens, SK-BR-3, 72 h
# [1] = Homo sapiens, NCI-N87, 72 h, Table VIII, drug compounds, read-out: N87 IC50
# [2] = Table VIII, drug compounds, read-out: BT474 IC50
# [3] = Homo sapiens, MCF7, 72 h, Table VIII, drug compounds, read-out: MCF7 IC50
# [4] = Homo sapiens, HCT-15, 72 h, Table VIII, drug compounds, read-out: HCT15 IC50
# [5] = Table VIII, drug compounds, read-out: SKBR3 IC50
Structure (SMILES),pIC50 (NCI-N87; [1]),pIC50 (BT474; [2]),pIC50 (MCF7; [3]),pIC50 (HCT15; [4]),pIC50 (SKBR3; [5]),other results
CCC(C)C(C(CC(=O)N1CCCC1C(OC)C(C)C(=O)NC(Cc1ccccc1)C(=O)OCCN)OC)N(C)C(=O)C(NC(=O)C(C(C)C)N(C)C)C(C)C (stereo not shown),9.05,–,–,–,–,–
CCC(C)C(C(CC(=O)N1CCCC1C(OC)C(C)C(=O)NC(Cc1ccccc1)C(=O)NCCN)OC)N(C)C(=O)C(NC(=O)C(C(C)C)N(C)C)C(C)C (stereo not shown),9.05,–,–,–,–,–
CCC(C)C(C(CC(=O)N1CCCC1C(OC)C(C)C(=O)NC(Cc1ccccc1)C(=O)NCCCOC(=O)C1CCCN1)OC)N(C)C(=O)C(NC(=O)C(C(C)C)N(C)C)C(C)C (stereo not shown),8.82,8.46,8.48,7.07,9.06,–
COc1cc2cc(C(=O)N3C[C@@H](CCl)c4c3cc(OC(=O)CCN)c3ccccc43)[nH]c2c(OC)c1OC,–,8.18,8.85,8.60,8.68,–
COc1cc2cc(C(=O)N3C[C@@H](CCl)c4c3cc(OC(=O)[C@@H]3CCCN3)c3ccccc43)[nH]c2c(OC)c1OC,9.03,8.34,–,8.82,8.87,–
COc1cc2cc(C(=O)N3C[C@@H](CCl)c4c3cc(OC(=O)[C@@H](N)C(C)C)c3ccccc43)[nH]c2c(OC)c1OC,9.02,8.46,–,–,9.02,–
COc1cc2cc(C(=O)N3C[C@@H](CCl)c4c3cc(OC(=O)N(C)CCO)c3ccccc43)[nH]c2c(OC)c1OC,7.52,7.17,7.00,7.00,7.67,–
COc1cc2cc(C(=O)N3C[C@@H](CCl)c4c3cc(OC(=O)N3CCN(CCN)CC3)c3ccccc43)[nH]c2c(OC)c1OC,–,–,–,–,–,"pIC50 (BT474; read-out: BT474 IC50, Table VIII, drug compounds): 7.00; pIC50 (NCI-N87; Homo sapiens, NCI-N87, 72 h, read-out: N87 IC50, Table VIII, drug compounds): 7.11; pIC50 (MCF7; Homo sapiens, MCF7, 72 h, read-out: MCF7 IC50, Table VIII, drug compounds): 7.00; pIC50 (HCT15; Homo sapiens, HCT-15, 72 h, read-out: HCT15 IC50, Table VIII, drug compounds): 7.17; pIC50 (SKBR3; read-out: SKBR3 IC50, Table VIII, drug compounds): 7.00"
CCCO[C@H](C[C@H](C(C)C)N(CCC)C(=O)[C@@H](NC(=O)[C@H]1CCCCN1C)[C@@H](C)CC)c1nc(C(=O)N[C@@H](Cc2ccc(O)cc2)C[C@H](C)C(=O)OCCCN)cs1,–,–,–,7.64,–,–
CCCO[C@H](C[C@H](C(C)C)N(CCC)C(=O)[C@@H](NC(=O)[C@H]1CCCCN1C)[C@@H](C)CC)c1nc(C(=O)N[C@@H](Cc2ccc(OC(=O)NCCCCN)cc2)C[C@H](C)C(=O)O)cs1,9.62,10.00,9.17,8.34,10.10,–
CCC(C)C(C(CC(=O)N1CCCC1C(OC)C(C)C(=O)NC(Cc1ccccc1)C(=O)OC)OC)N(C)C(=O)C(NC(=O)C(C(C)C)N(C)C)C(C)C (stereo not shown) [drawing 761 (R42 = -CH3)],10.52,10.05,9.57,9.39,–,–
CCC(C)C(C(CC(=O)N1CCCC1C(OC)C(C)C(=O)NC(Cc1ccccc1)C(=O)NO)OC)N(C)C(=O)C(NC(=O)C(C(C)C)N(C)C)C(C)C (stereo not shown) [drawing 765 (R40 = -OH)],–,7.69,7.41,–,7.92,–
CCC(C)C(C(CC(=O)N1CCCC1C(OC)C(C)C(=O)NC(Cc1ccccc1)C(N)=O)OC)N(C)C(=O)C(NC(=O)C(C(C)C)N(C)C)C(C)C (stereo not shown) [drawing 765 (R40 = H)],–,–,8.75,–,9.49,–
CCC(C)C(C(CC(=O)N1CCCC1C(OC)C(C)C(=O)NC(Cc1ccccc1)C(=O)NCC(C)O)OC)N(C)C(=O)C(NC(=O)C(C(C)C)N(C)C)C(C)C (stereo not shown) [drawing 771],9.16,8.90,8.73,7.50,9.36,–
CCC(C)C(C(CC(=O)N1CCCC1C(OC)C(C)C(=O)NC(Cc1ccccc1)C(=O)NCC(C)O)OC)N(C)C(=O)C(NC(=O)C(C(C)C)N(C)C)C(C)C (stereo not shown) [drawing 772],–,–,–,–,–,"pIC50 (NCI-N87; Table VIII, drug compounds, 72 h, read-out: N87 IC50): 9.11; pIC50 (MCF7; Table VIII, drug compounds, 72 h, read-out: MCF7 IC50): 8.69; pIC50 (HCT15; Table VIII, drug compounds, 72 h, read-out: HCT15 IC50): 7.49"
CCC(C)C(C(CC(=O)N1CCCC1C(OC)C(C)C(=O)NC(C)C(O)c1ccccc1)OC)N(C)C(=O)C(NC(=O)C(C(C)C)N(C)C)C(C)C (stereo not shown) [drawing 777 (R90 = -H)],9.62,–,–,8.00,–,–
COc1cc2cc(C(=O)N3C[C@@H](CCl)c4c3cc(O)c3ccccc43)[nH]c2c(OC)c1OC [drawing 780 (R91 = H)],–,8.43,9.00,8.76,8.98,–
"CCCO[C@H](C[C@H](C(C)C)N(CCC)C(=O)[C@@H](NC(=O)[C@H]1CCCCN1C)[C@@H](C)CC)c1nc(C(=O)N[C@@H](Cc2ccc(O)cc2)C[C@H](C)C(N)=O)cs1 [drawing 786 (R43 = H, R78 = -NH2)]",8.49,8.87,8.48,–,8.80,–
"CCCO[C@H](C[C@H](C(C)C)N(CCC)C(=O)[C@@H](NC(=O)[C@H]1CCCCN1C)[C@@H](C)CC)c1nc(C(=O)N[C@@H](Cc2ccc(O)cc2)C[C@H](C)C(=O)OC)cs1 [drawing 786 (R43 = H, R78 = -OCH3)]",–,–,8.52,–,9.15,–
"CCCO[C@H](C[C@H](C(C)C)N(CCC)C(=O)[C@@H](NC(=O)[C@H]1CCCCN1C)[C@@H](C)CC)c1nc(C(=O)N[C@@H](Cc2ccc(O)cc2)C[C@H](C)C(=O)O)cs1 [drawing 786 (R43 = H, R78 = -OH)]",10.00,10.40,–,9.54,10.22,–
